{"source": "paper PMC7127469", "about": "(European Journal of Medicinal Chemistry, 2010)", "type_in_all_cases": "cell-based", "key": {"[1]": {"tested_on": "influenza A H1N1 subtype", "assay": "Antiviral assay, inhibition of virus-induced cytopathic effect, MDCK cells"}, "[2]": {"tested_on": "influenza A H3N2 subtype", "assay": "Antiviral assay, inhibition of virus-induced cytopathic effect, MDCK cells"}, "[3]": {"tested_on": "herpes simplex virus-1(KOS)", "assay": "microbe, parasite or virus in culture", "conditions": "Human alphaherpesvirus 1, HEL, virus d, HEL cells"}, "[4]": {"tested_on": "vaccinia virus", "assay": "microbe, parasite or virus in culture", "conditions": "Orthopoxvirus vaccinia, HEL"}, "[5]": {"tested_on": "Vesicular stomatitis virus", "assay": "microbe, parasite or virus in culture", "conditions": "HEL"}, "[6]": {"tested_on": "herpes simplex virus-2 (G)", "assay": "microbe, parasite or virus in culture", "conditions": "Human alphaherpesvirus 2, HEL, virus e, HEL cells"}, "[7]": {"tested_on": "coxsakie virus B4", "assay": "organism not typed", "conditions": "Vero"}, "[8]": {"tested_on": "para-influenza-3 virus", "assay": "organism not typed", "conditions": "Vero, virus i, Vero cells"}, "[9]": {"tested_on": "coxsackie virus B4", "assay": "microbe, parasite or virus in culture", "conditions": "Enterovirus B, B4, HeLa, coxsackie virus B4, HeLa cells"}, "[10]": {"tested_on": "sindbis virus", "assay": "microbe, parasite or virus in culture", "conditions": "Vero, virus k, Vero cells"}, "[11]": {"tested_on": "reovirus-1", "assay": "organism not typed", "conditions": "Vero, virus j, reovirus-1, Vero cells"}, "[12]": {"tested_on": "punta toro virus", "assay": "microbe, parasite or virus in culture", "conditions": "Vero, virus m, Vero cells"}, "[13]": {"tested_on": "Vesicular stomatitis virus", "assay": "microbe, parasite or virus in culture", "conditions": "HeLa"}, "[14]": {"tested_on": "influenza B", "assay": "Antiviral assay, inhibition of virus-induced cytopathic effect, MDCK cells"}, "[15]": {"tested_on": "feline herpes virus", "assay": "organism not typed", "conditions": "CRFK, virus o, CRFK cells"}, "[16]": {"conditions": "virus p, influenza A H1N1 subtype, MDCK cells"}, "[17]": {"conditions": "virus q, influenza A H3N2 subtype, MDCK cells"}}}
{"smiles": "CC(N)C12CC3CC(CC(C3)C1)C2", "note": "(centres unmarked) [Rimantidin]", "values": [{"measurement": "EC50", "setting": "[1]; [16]", "value": 20, "unit": "µM"}, {"measurement": "EC50", "setting": "[2]; [17]", "value": 0.8, "unit": "µM"}]}
{"smiles": "O=c1[nH]c(=O)n([C@H]2C[C@H](O)[C@@H](CO)O2)cc1/C=C/Br", "note": "[Brivudine]", "values": [{"measurement": "EC50", "setting": "[3]", "value": 0.08, "unit": "µM"}, {"measurement": "EC50", "setting": "[4]", "value": 2, "unit": "µM"}, {"measurement": "EC50", "setting": "[5]", "value": "> 250", "unit": "µM"}, {"measurement": "EC50", "setting": "[6]", "value": 50, "unit": "µM"}]}
{"smiles": "Nc1ncnc2c1ncn2C[C@H](O)CO", "note": "[(S)-DHPA]", "values": [{"measurement": "EC50", "setting": "[7]", "value": "> 250", "unit": "µM"}, {"measurement": "EC50", "setting": "[8]", "value": "> 250", "unit": "µM"}, {"measurement": "EC50", "setting": "[9]", "value": "> 250", "unit": "µM"}, {"measurement": "EC50", "setting": "[10]", "value": "> 250", "unit": "µM"}, {"measurement": "EC50", "setting": "[11]", "value": "> 250", "unit": "µM"}, {"measurement": "EC50", "setting": "[12]", "value": "> 250", "unit": "µM"}]}
{"smiles": "NC12CC3CC(CC(C3)C1)C2", "note": "[Amantidin]", "values": [{"measurement": "EC50", "setting": "[1]; [16]", "value": 45, "unit": "µM"}, {"measurement": "EC50", "setting": "[2]; [17]", "value": 4, "unit": "µM"}]}
{"smiles": "NC(=O)c1ncn([C@@H]2O[C@H](CO)[C@@H](O)[C@H]2O)n1", "note": "[Ribavirin]", "values": [{"measurement": "EC50", "setting": "[1]; Influenza A virus, H1N1, MDCK", "value": 7, "unit": "µM"}, {"measurement": "EC50", "setting": "[7]", "value": "> 250", "unit": "µM"}, {"measurement": "EC50", "setting": "[2]; Influenza A virus, H3N2, MDCK", "value": 9, "unit": "µM"}, {"measurement": "EC50", "setting": "[3]", "value": 10, "unit": "µM"}, {"measurement": "EC50", "setting": "[13]", "value": 10, "unit": "µM"}, {"measurement": "EC50", "setting": "[8]", "value": 95, "unit": "µM"}, {"measurement": "EC50", "setting": "[9]", "value": 30, "unit": "µM"}, {"measurement": "EC50", "setting": "[4]", "value": 85, "unit": "µM"}, {"measurement": "EC50", "setting": "[5]", "value": "> 250", "unit": "µM"}, {"measurement": "EC50", "setting": "[6]", "value": 50, "unit": "µM"}, {"measurement": "EC50", "setting": "[14]", "value": 9, "unit": "µM"}, {"measurement": "EC50", "setting": "[11]", "value": 250, "unit": "µM"}, {"measurement": "EC50", "setting": "[12]", "value": 50, "unit": "µM"}]}
{"smiles": "Nc1nc(O)c2ncn(COC(CO)CO)c2n1", "note": "[Ganciclovir]", "values": [{"measurement": "EC50", "setting": "[15]", "value": 2.6, "unit": "µM"}, {"measurement": "EC50", "setting": "[3]", "value": 0.03, "unit": "µM"}, {"measurement": "EC50", "setting": "[4]", "value": "> 100", "unit": "µM"}, {"measurement": "EC50", "setting": "[5]", "value": "> 100", "unit": "µM"}, {"measurement": "EC50", "setting": "[6]", "value": 0.03, "unit": "µM"}]}
{"smiles": "CCC(CC)O[C@@H]1C=C(C(=O)O)C[C@H](N)[C@H]1NC(C)=O", "note": "[Oseltamivir-carboxylate]", "values": [{"measurement": "EC50", "setting": "[1]; Influenza A virus, H1N1, MDCK", "value": 0.07, "unit": "µM"}, {"measurement": "EC50", "setting": "[2]; Influenza A virus, H3N2, MDCK", "value": 1.7, "unit": "µM"}, {"measurement": "EC50", "setting": "[14]", "value": 4, "unit": "µM"}]}
